Experimental data from article PMC7408349, “Synthesis and Anticancer Activity of Dimeric Polyether Ionophores” (Biomolecules, 2020).

How the values were obtained:
[1] = tested on: LoVo/DX cells (doxorubicin-resistant human colon adenocarcinoma sub-line, ABCB1 overexpression); experiment: In vitro antiproliferative activity, SRB assay, LoVo/DX; conditions: Homo sapiens, LoVo/DX, 72 h, read-out: IC50 LoVo/DX
[2] = as above
[3] = tested on: MCF10A cells (normal mammary epithelial cell line); experiment: Cytotoxicity on non-tumor cells, SRB assay, MCF10A; type: cell-based; conditions: Homo sapiens, MCF-10A, 72 h incubation, mean ± SD, '---' = inactive (undetectable IC50 in tested concentration range)
Text: (§1) Each experiment was repeated at least three times separately.

[4] = tested on: MCF-7 cells (human breast cancer cell line); experiment: In vitro antiproliferative activity, SRB assay, MCF-7; type: cell-based; conditions: MCF7, 72 h incubation, mean ± SD, LAS, MON, SAL as sodium salts, '---' = inactive (undetectable IC50 in tested concentration range)
Text: as §1

[5] = tested on: MV-4-11 cells (human acute myeloid leukemia cell line); experiment: In vitro antiproliferative activity, SRB assay, MV-4-11; type: cell-based; conditions: MV4-11, 72 h incubation, mean ± SD, LAS, MON, SAL as sodium salts
Text: as §1

[6] = tested on: LoVo cells (human colon adenocarcinoma, drug-sensitive variant); experiment: In vitro antiproliferative activity, SRB assay, LoVo; type: cell-based; conditions: 72 h incubation, mean ± SD, LAS, MON, SAL as sodium salts
Text: as §1

[7] = tested on: SKBR-3 cells (human breast cancer cell line); experiment: In vitro antiproliferative activity, SRB assay, SKBR-3; type: cell-based; conditions: mean ± SD, LAS, MON, SAL as sodium salts
Text: as §1

[8] = tested on: JIMT-1 cells (human breast cancer cell line); experiment: In vitro antiproliferative activity, SRB assay, JIMT-1; type: cell-based; conditions: mean ± SD, LAS, MON, SAL as sodium salts, '---' = inactive (undetectable IC50 in tested concentration range)
Text: as §1

[9] = tested on: BALB/3T3 cells (normal embryonic fibroblasts); experiment: Cytotoxicity on non-tumor cells, SRB assay, BALB/3T3; type: cell-based, murine; conditions: Mus musculus, non-tumor cell line, 72 h incubation, mean ± SD, '---' = inactive (undetectable IC50 in tested concentration range)
Text: as §1

[10] = mouse (BALB/3T3), human (LoVo/DX)
[11] = Homo sapiens, SK-BR-3, 72 h incubation
[12] = Homo sapiens, JIMT-1, 72 h incubation

Compound | IC50 [1] [µM] | selectivity ratio at 72 h ([2]; human) | selectivity ratio at 72 h [2, 10] | IC50 [3] [µM] | IC50 [4] [µM] | IC50 [5] [µM] | IC50 [6] [µM] | IC50 [7, 11] [µM] | IC50 [8, 12] [µM] | IC50 [9] [µM] | selectivity ratio at 72 h (in vitro; human) | selectivity ratio at 72 h (in vitro; [10]) | IC50 ([7]; 72 h incubation) [µM] | IC50 ([8]; 72 h incubation) [µM]
CC[C@@H](C(=O)[C@@H](C)[C@@H](O)[C@H](C)CCc1ccc(C)c(O)c1C(=O)O)[C@H]1O[C@](CC)([C@H]2CC[C@](O)(CC)[C@H](C)O2)C[C@@H]1C [LAS, lasalocid acid] | 4.55 ± 0.27 | 1.5 | 2 | 6.81 ± 2.85 | 4.44 ± 1.34 | 1.96 ± 0.65 | 4.05 ± 1.02 | 1.37 ± 0.01 | 5.55 | 9.11 ± 3.65 | – | – | – | –
CC[C@@]1([C@@H]2O[C@@H]([C@H]3O[C@@](O)(CO)[C@H](C)C[C@@H]3C)C[C@@H]2C)CC[C@H]([C@]2(C)CC[C@]3(C[C@H](O)[C@@H](C)[C@@H]([C@@H](C)[C@@H](OC)[C@H](C)C(=O)O)O3)O2)O1 [MON, monensin] | 0.26 ± 0.11 | – | – | 0.87 ± 0.23 | 0.51 ± 0.12 | 0.03 ± 0.02 | 0.09 ± 0.06 | 0.04 ± 0.02 | 1.17 ± 0.14 | 1.1 ± 0.24 | 3.35 | 4.23 | – | –
C=C(C)[C@@H]1CC[C@]2(C(=O)OCc3cn([C@H]4C=C[C@]5(O[C@H]([C@@H](CC)C(=O)[C@@H](C)[C@@H](O)[C@H](C)[C@@H]6O[C@@H]([C@@H](CC)C(=O)O)CC[C@@H]6C)[C@@H](C)C[C@H]5C)O[C@@]45CC[C@@](C)([C@H]4CC[C@](O)(CC)[C@H](C)O4)O5)nn3)CC[C@]3(C)[C@H](CC[C@@H]4[C@@]5(C)CC[C@H](O)C(C)(C)[C@@H]5CC[C@]43C)[C@@H]12 [compound 19, Salinomycin-betulinic acid dimer] | – | – | – | 7.02 ± 2.44 | 6.87 ± 3.28 | 0.29 ± 0.14 | 2.66 ± 0.98 | 0.6 ± 0.26 | 7.09 ± 2.22 | 6.22 ± 1.44 | – | – | – | –
CC[C@@H](C(=O)[C@@H](C)[C@@H](O)[C@H](C)[C@@H]1O[C@@H]([C@@H](CC)C(=O)O)CC[C@@H]1C)[C@H]1O[C@]2(C=C[C@@H](O)[C@]3(CC[C@@](C)([C@H]4CC[C@](O)(CC)[C@H](C)O4)O3)O2)[C@H](C)C[C@@H]1C [SAL, salinomycin] | 0.61 ± 0.21 | – | – | 1.28 ± 0.46 | 0.93 ± 0.33 | 0.1 ± 0.03 | 0.25 ± 0.07 | 0.27 | 2.67 | 1.55 ± 0.86 | 2.1 | 2.54 | – | –
COc1cccc2c1C(=O)c1c(O)c3c(c(O)c1C2=O)C[C@@](O)(C(=O)CO)C[C@@H]3O[C@H]1C[C@H](N)[C@H](O)[C@H](C)O1 [DX, doxorubicin] | 8.74 ± 1.46 | 0.02 | 0.03 | 0.17 ± 0.03 | 0.13 ± 0.05 | 0.02 ± 0.004 | 0.11 ± 0.004 | 0.11 ± 0.01 | 0.4 ± 0.1 | 0.26 ± 0.14 | – | – | – | –
C=C(C)[C@@H]1CC[C@]2(C(=O)NCc3cn([C@H]4C=C[C@]5(O[C@H]([C@@H](CC)C(=O)[C@@H](C)[C@@H](O)[C@H](C)[C@@H]6O[C@@H]([C@@H](CC)C(=O)O)CC[C@@H]6C)[C@@H](C)C[C@H]5C)O[C@@]45CC[C@@](C)([C@H]4CC[C@](O)(CC)[C@H](C)O4)O5)nn3)CC[C@]3(C)[C@H](CC[C@@H]4[C@@]5(C)CC[C@H](O)C(C)(C)[C@@H]5CC[C@]43C)[C@@H]12 [compound 18, Salinomycin-betulinic acid dimer] | 14.1 ± 6.9 | – | – | 10.3 ± 4.47 | 4.19 ± 1.82 | 0.1 ± 0.09 | 0.43 ± 0.13 | 0.34 ± 0.13 | 7.28 ± 3.11 | 4.87 ± 1.56 | 0.73 | 0.35 | – | –
C=C(C)[C@@H]1CC[C@]2(C(=O)O)CC[C@]3(C)[C@H](CC[C@@H]4[C@@]5(C)CC[C@H](O)C(C)(C)[C@@H]5CC[C@]43C)[C@@H]12 [BET, betulinic acid] | 8.96 ± 1.08 | 0.81 | 9.47 | 7.23 ± 1.24 | 12.6 ± 1.57 | 1.42 ± 0.97 | 16.5 ± 6.56 | 7.47 ± 1.16 | 9.9 ± 2.32 | 84.8 ± 10 | – | – | – | –
C=C(C)[C@@H]1CC[C@]2(C(=O)O)CC[C@]3(C)[C@H](CC[C@@H]4[C@@]5(C)CC[C@H](OC(=O)OCc6cn([C@H]7C=C[C@]8(O[C@H]([C@@H](CC)C(=O)[C@@H](C)[C@@H](O)[C@H](C)[C@@H]9O[C@@H]([C@@H](CC)C(=O)O)CC[C@@H]9C)[C@@H](C)C[C@H]8C)O[C@@]78CC[C@@](C)([C@H]7CC[C@](O)(CC)[C@H](C)O7)O8)nn6)C(C)(C)[C@@H]5CC[C@]43C)[C@@H]12 [compound 20, Salinomycin-betulinic acid dimer] | 48.6 ± 11.8 | – | – | 30.3 ± 13.8 | 21.7 ± 5.28 | 1.92 ± 0.82 | 5.18 ± 0.72 | 3.25 ± 0.24 | 14.7 ± 4.88 | 18.7 ± 4.57 | 0.62 | 0.39 | – | –
N.N.[Cl][Pt][Cl] [CIS, cisplatin] | – | – | – | – | – | – | – | – | – | – | – | – | 4.17 | 8.23
